Laboratory results: the supplement of paper PMC8967900

Tests used:
Assay in all cases: selective drug sensitivity score (sDSS, relative to normal bone marrow) (sDSS (score)); higher = more potent and effective on the cell line relative to normal bone marrow cells
Conditions in all cases: 72 h
[1] = tested on: PEER
[2] = tested on: PF-382
[3] = tested on: COG-LL-394h
[4] = tested on: P12-ICHIKAWA
[5] = tested on: NALM-6
[6] = tested on: TANOUE
[7] = tested on: ALL-SIL
[8] = tested on: COG-LL-319h
[9] = tested on: CCRF-CEM
[10] = tested on: 380
[11] = tested on: NALL-1
[12] = tested on: JURKAT
[13] = tested on: REH
[14] = tested on: P30-OHKUBO
[15] = tested on: KARPAS-45
[16] = tested on: DND-41
[17] = tested on: MOLT-14
[18] = tested on: RPMI-8402
[19] = tested on: MHH-CALL-3
[20] = tested on: MN-60
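Also: ALL cell lines in 384-well plates, five doses spanning 10,000-fold, each plate scaled between vehicle and 100 µmol/L benzalkonium chloride controls, sDSS an adapted area-under-curve metric.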

Structure (SMILES) | selective drug sensitivity score [1] | selective drug sensitivity score [2] | selective drug sensitivity score [3] | selective drug sensitivity score [4] | selective drug sensitivity score [5] | selective drug sensitivity score [6] | selective drug sensitivity score [7] | selective drug sensitivity score [8] | selective drug sensitivity score [9] | selective drug sensitivity score [10] | selective drug sensitivity score [11] | selective drug sensitivity score [12] | selective drug sensitivity score [13] | selective drug sensitivity score [14] | selective drug sensitivity score [15] | selective drug sensitivity score [16] | selective drug sensitivity score [17] | selective drug sensitivity score [18] | selective drug sensitivity score [19] | selective drug sensitivity score [20]
CNC(=O)c1ccc(-c2cnc3ncc(Cc4ccc5ncccc5c4)n3n2)cc1F [Capmatinib] (top concentration 1000 nM) | -0.06 | -0.06 | -0.06 | -0.06 | 0.24 | 0.44 | -0.06 | 14.9 | 0.04 | 2.04 | -0.06 | -0.06 | -0.06 | -0.06 | -0.06 | 0.34 | -0.06 | -0.06 | -0.06 | -0.06
COc1cc2c(Oc3ccc4[nH]c(C)cc4c3F)ncnc2cc1OCCCN1CCCC1 [Cediranib] (top concentration 1000 nM) | 0 | 0 | 0 | 0 | 0 | 0 | 0 | 0 | 0.1 | 0 | 0 | 0 | 0 | 2.7 | 0.2 | 0 | 0 | 0 | 0 | 0
CCN(CC)CCCC(C)Nc1ccnc2cc(Cl)ccc12 (stereo not given) [Chloroquine] (top concentration 100000 nM) | -0.94 | -2.34 | -4.54 | -3.94 | -2.74 | -6.04 | -0.74 | -5.84 | -2.94 | -4.94 | -8.84 | -5.04 | 0.96 | 0.26 | 1.26 | -0.94 | -2.84 | -1.74 | -6.04 | -2.74
C[C@@H](Oc1cc(-c2cnn(C3CCNCC3)c2)cnc1N)c1c(Cl)ccc(F)c1Cl [Crizotinib] (top concentration 1000 nM) | 1.86 | -0.54 | 0.86 | -0.54 | 0.96 | -0.54 | 5.46 | -0.54 | -0.54 | -0.54 | -0.54 | -0.54 | -0.54 | -0.54 | -0.24 | -0.54 | -0.54 | -0.54 | -0.54 | -0.54
COc1cc2ncnc(Nc3ccc(F)c(Cl)c3)c2cc1NC(=O)/C=C/CN1CCCCC1 [Dacomitinib] (top concentration 1000 nM) | -0.14 | -0.94 | -1.64 | -1.44 | -1.64 | -1.64 | -1.04 | -1.24 | 0.26 | -1.64 | -1.64 | -1.64 | -1.04 | 0.96 | 0.36 | -1.04 | 0.86 | -0.34 | 2.06 | -1.64
CCN(CC)CCN(Cc1ccc(-c2ccc(C(F)(F)F)cc2)cc1)C(=O)Cn1c(SCc2ccc(F)cc2)nc(=O)c2c1CCC2 [Darapladib] (top concentration 1000 nM) | -1.42 | -1.22 | -1.42 | -1.42 | -1.42 | -1.42 | -1.42 | -1.42 | -1.42 | -1.42 | 6.18 | -1.42 | -1.42 | 0.68 | -1.32 | -0.72 | -1.42 | -1.32 | -1.42 | -1.42
C[C@@H]1C[C@H]2[C@@H]3CCC4=CC(=O)C=C[C@]4(C)[C@@]3(F)[C@@H](O)C[C@]2(C)[C@@]1(O)C(=O)CO [Dexamethasone] (top concentration 10000 nM) | -0.92 | 1.48 | -1.52 | 28 | 30.8 | -1.42 | 18.6 | 26.5 | 13.9 | 32.2 | 34.1 | -1.52 | -1.52 | 28.6 | 24.4 | 36.3 | -1.52 | 3.18 | 40.3 | -0.52
Cc1cc(C)c(CNC(=O)c2cc(-c3ccc(CN4CCOCC4)cc3)cc3c2cnn3C2CCCC2)c(=O)[nH]1 [EPZ-5687] (top concentration 10000 nM) | -0.36 | -0.36 | -0.36 | -0.36 | -0.36 | -0.36 | -0.36 | -0.36 | 0.14 | -0.36 | 5.34 | -0.36 | 6.64 | 2.24 | -0.26 | -0.36 | -0.36 | -0.16 | -0.36 | -0.36
C=C1C[C@@H]2CC[C@@]34C[C@H]5O[C@H]6[C@@H](O3)[C@H]3O[C@H](CC[C@@H]3O[C@H]6[C@H]5O4)CC(=O)C[C@@H]3[C@@H](OC)[C@@H](C[C@H](O)CN)O[C@H]3C[C@H]3O[C@@H](CC[C@@H]1O2)C[C@@H](C)C3=C [Eribulin] (top concentration 1000 nM) | 23.6 | 15.1 | 6.7 | 16.7 | 16 | -8.6 | 23.2 | 14.8 | 19.9 | 24.2 | 15.8 | 26.9 | 18.9 | 19.6 | 21.7 | 9.1 | 25.2 | 22.1 | 13.1 | 3.8
O=c1[nH]cc(F)c(=O)[nH]1 [Fluorouracil] (top concentration 10000 nM) | -0.64 | -0.64 | -0.34 | 0.46 | 1.86 | -0.64 | -0.64 | 6.56 | 3.06 | 1.86 | -0.24 | 0.16 | 1.76 | 3.16 | 0.46 | -0.64 | 5.76 | 2.66 | -0.24 | -0.64
CC(C)C(=O)Nc1ccc([N+](=O)[O-])c(C(F)(F)F)c1 [Flutamide] (top concentration 10000 nM) | 0.94 | 0.14 | -0.26 | 0.74 | -0.46 | 0.04 | -0.26 | -0.56 | -0.16 | -0.56 | 8.04 | 1.84 | -0.56 | 0.94 | 0.74 | -0.16 | -0.56 | 0.74 | -0.56 | -0.56
C[C@]12CC[C@@H]3c4ccc(O)cc4C[C@@H](CCCCCCCCC[S+]([O-])CCCC(F)(F)C(F)(F)F)[C@H]3[C@@H]1CC[C@@H]2O (stereo not given in full) [Fulvestrant] (top concentration 1000 nM) | 0 | 0 | 0 | 0 | 0 | 0 | 5.3 | 0 | 0 | 0 | 1.6 | 0 | 0.2 | 0 | 0 | 8.3 | 0 | 0 | 0 | 0
CCCOc1ccn2c(C(C)=O)cc(-c3ccccc3S(C)(=O)=O)c2c1 [GSK2801] (top concentration 10000 nM) | 0.34 | 0.54 | -0.16 | -0.16 | -0.36 | -0.36 | -0.36 | 4.44 | -0.26 | 3.44 | -0.36 | -0.26 | -0.36 | -0.36 | 0.44 | -0.26 | 2.64 | -0.16 | -0.36 | -0.36
Cc1cccc(-c2nn3c(c2-c2ccnc4ccc(C(N)=O)cc24)CCC3)n1 [Galunisertib] (top concentration 1000 nM) | 0 | 0 | 0 | 0 | 0 | 0 | 0 | 0 | 0 | 0 | 0 | 0 | 0 | 2.9 | 0 | 0 | 0 | 0 | 0 | 0
O=C(O)CNC(=O)c1c(O)c2ccccc2n(Cc2ccccc2)c1=O [IOX-2] (top concentration 50000 nM) | -0.82 | -0.82 | -0.82 | -0.42 | -0.32 | -0.82 | -0.82 | 4.18 | -0.82 | 8.98 | -0.82 | -0.82 | -0.82 | -0.12 | -0.82 | -0.82 | -0.82 | -0.82 | 0.88 | -0.42
C#Cc1cccc(Nc2ncnc3cc4c(cc23)OCCOCCOCCO4)c1 [Icotinib] (top concentration 10000 nM) | 0.7 | 0.5 | 0 | 0.6 | 0 | 0 | 0.8 | 1.8 | 0.3 | 3.6 | 6.5 | 0 | 0 | 2.1 | 1.4 | 0 | 0 | 2.3 | 1.3 | 0.6
CC(C)Cn1cnc2c(N)nc3ccccc3c21 [Imiquimod] (top concentration 2500 nM) | 0 | 0 | 0.8 | 0 | 0.4 | 0.1 | 0 | 0 | 0 | 9 | 0 | 0 | 5.1 | 0 | 0 | 0 | 0 | 0 | 0 | 0
N#Cc1ccnc(N2C(=O)CC[C@H]2C(=O)N(c2cncc(F)c2)[C@H](C(=O)NC2CC(F)(F)C2)c2ccccc2Cl)c1 [Ivosidenib] (top concentration 10000 nM) | 0.6 | 0.8 | 0 | 1 | 0 | 0 | 2 | 0 | 1 | 3 | 0 | 0.7 | 0.6 | 1.1 | 0.5 | 0 | 0.1 | 0.8 | 0 | 0
